Measured values as given in ChEMBL document CHEMBL4477208, “Discovery and Rational Design of Pteridin-7(8H)-one-Based Inhibitors Targeting FMS-like Tyrosine Kinase 3 (FLT3) and Its Mutants” (J Med Chem, 2016).
Activity calls are given as the source filed them. The calls are words filed in the database; no cut-off is given here.

Experiments:
RS4-11 = assay: Antiproliferative activity against human RS4:11 cells after 72 hrs by MTT assay; assay type: functional, cell-based; conditions: RS4-11, 72 h
[1] = tested on: Receptor-type tyrosine-protein kinase FLT3 (Homo sapiens), P36888 [UNDEFINED MUTATION]; assay: Inhibition of human FLT3 ITD/F691L mutant expressed in mammalian system assessed as remaining enzyme activity at 1 uM relative to untreated control
MV4-11 [2] = assay: Cell cycle arrest in human MV4-11 cells assessed as accumulation at S phase at 1 nM after 48 hrs by PI/RNase staining based FACS analysis (reference value: 16.50%); assay type: functional
MV4-11 [3] = assay: animal or person; conditions: Mus musculus, MV4-11, po, read-out: TGI
Description: Antitumor activity against human MV4-11 cells xenografted in nude BALB/c mouse assessed as tumor growth inhibition at 10 mg/kg, po qd for 14 days measured every 2 days

WI-38 = assay: cells; conditions: Homo sapiens, WI-38, 72 h
Description: Antiproliferative activity against human WI38 cells after 72 hrs by SRB assay

MV4-11 [4] = assay: Cell cycle arrest in human MV4-11 cells assessed as cell debris level at 1000 nM after 48 hrs by PI/RNase staining based FACS analysis; assay type: functional
MV4-11 [5] = assay: Cell cycle arrest in human MV4-11 cells assessed as accumulation at subG1 phase after 48 hrs by PI/RNase staining based FACS analysis; assay type: functional
MV4-11 [6] = assay: Induction of apoptosis in human MV4-11 cells assessed as late apoptotic cells at 1 nM after 48 hrs by annexin V/propidium iodide staining based FACS analysis (reference value: 3.01%); assay type: functional
MV4-11 [7] = assay: Cell cycle arrest in human MV4-11 cells assessed as accumulation at G2 phase at 100 nM after 48 hrs by PI/RNase staining based FACS analysis (reference value: 13.95%); assay type: functional
MV4-11 [8] = assay: Cell cycle arrest in human MV4-11 cells assessed as accumulation at G2 phase at 1000 nM after 48 hrs by PI/RNase staining based FACS analysis (reference value: 13.95%); assay type: functional
MV4-11 [9] = assay: Cell cycle arrest in human MV4-11 cells assessed as accumulation at G0/G1 phase at 100 nM after 48 hrs by PI/RNase staining based FACS analysis (reference value: 69.55%); assay type: functional
MV4-11 [10] = assay: Induction of apoptosis in human MV4-11 cells assessed as dead cells after 48 hrs by annexin V/propidium iodide staining based FACS analysis; assay type: functional, cell-based
MV4-11 [11] = assay: Antitumor activity against human MV4-11 cells xenografted in nude BALB/c mouse assessed as induction of late stage apoptosis at 50 mg/kg, po qd measured after 1 to 3 days by TUNEL assay; assay type: functional, organism-based
[12] = biological target: Receptor-type tyrosine-protein kinase FLT3 (Homo sapiens, UniProt P36888, D835V/ITD); assay: Binding affinity to human partial length FLT3 ITD/D835V mutant expressed in mammalian expression system after 1 hr
MV4-11 [13] = assay: cells; conditions: Homo sapiens, MV4-11, 72 h
Description: Antiproliferative activity against human MV4-11 cells harboring FLT3-ITD mutant after 72 hrs by MTT assay

[14] = biological target: Receptor-type tyrosine-protein kinase FLT3 (Homo sapiens) (UniProt P36888); assay: Inhibition of human FLT3 expressed in bacterial system assessed as remaining enzyme activity at 1 uM relative to untreated control
[15] = AUC (0 to infinity) in overnight fasted Sprague-Dawley rat plasma at 1 mg/kg, iv up to 24 hrs by LC-MS/MS analysis; assay type: ADME, organism-based; set-up: dose 1 mg/kg, route intravenous, time infinity
DMS-79 = assay: Antiproliferative activity against human DMS79 cells after 72 hrs by MTT assay; assay type: functional, cell-based; conditions: DMS-79, 72 h
MCF7 = assay: Antiproliferative activity against human MCF7 cells after 72 hrs by SRB assay; assay type: functional, cell-based; conditions: MCF7, 72 h
A549 = assay: Antiproliferative activity against human A549 cells after 72 hrs by SRB assay; assay type: functional, cell-based; conditions: A549, 72 h
MV4-11 [16] = assay: Antitumor activity against human MV4-11 cells xenografted in nude BALB/c mouse assessed as tumor growth inhibition at 50 mg/kg, ip qd for 14 days measured every 2 days; assay type: functional; conditions: MV4-11, ip, read-out: TGI
MV4-11 [17] = assay: Cell cycle arrest in human MV4-11 cells assessed as accumulation at G0/G1 phase after 48 hrs by PI/RNase staining based FACS analysis; assay type: functional
NCI-H209 = assay: Antiproliferative activity against human H209 cells after 72 hrs by MTT assay; assay type: functional, cell-based; conditions: NCI-H209, 72 h
MV4-11 [18] = assay: Induction of apoptosis in human MV4-11 cells assessed as early apoptotic cells at 10 nM after 48 hrs by annexin V/propidium iodide staining based FACS analysis (reference value: 6.31%); assay type: functional
SW-620 = assay: Antiproliferative activity against human SW620 cells after 72 hrs by SRB assay; assay type: functional, cell-based; conditions: SW-620, 72 h
MV4-11 [19] = assay: Induction of apoptosis in human MV4-11 cells assessed as necrotic cells at 10000 nM after 48 hrs by annexin V/propidium iodide staining based FACS analysis (reference value: 0.05%); assay type: functional
MV4-11 [20] = assay: Induction of apoptosis in human MV4-11 cells assessed as late apoptotic cells at 10000 nM after 48 hrs by annexin V/propidium iodide staining based FACS analysis (reference value: 3.01%); assay type: functional
MV4-11 [21] = assay: Induction of apoptosis in human MV4-11 cells assessed as viable cells at 100 nM after 48 hrs by annexin V/propidium iodide staining based FACS analysis (reference value: 90.60%); assay type: functional; conditions: MV4-11, 48 h, read-out: Activity
MV4-11 [22] = assay: Cell cycle arrest in human MV4-11 cells assessed as accumulation at G2 phase at 10 nM after 48 hrs by PI/RNase staining based FACS analysis (reference value: 13.95%); assay type: functional
MV4-11 [23] = assay: Induction of apoptosis in human MV4-11 cells assessed as early apoptotic cells at 1000 nM after 48 hrs by annexin V/propidium iodide staining based FACS analysis (reference value: 6.31%); assay type: functional
MV4-11 [24] = assay: Antitumor activity against human MV4-11 cells xenografted in nude BALB/c mouse assessed as tumor growth inhibition at 25 mg/kg, po qd for 14 days measured every 2 days; assay type: functional; conditions: MV4-11, po, read-out: TGI
MV4-11 [25] = assay: Induction of apoptosis in human MV4-11 cells assessed as viable cells at 1000 nM after 48 hrs by annexin V/propidium iodide staining based FACS analysis (reference value: 90.60%); assay type: functional; conditions: MV4-11, 48 h, read-out: Activity
MV4-11 [26] = assay: Cell cycle arrest in human MV4-11 cells assessed as accumulation at S phase at 100 nM after 48 hrs by PI/RNase staining based FACS analysis (reference value: 16.50%); assay type: functional
[27] = biological target: Receptor-type tyrosine-protein kinase FLT3 (Homo sapiens, UniProt P36888, D835Y); assay: Binding affinity to human partial length FLT3 D835Y mutant (580 to 969 residues) expressed in bacterial expression system after 1 hr
MV4-11 [28] = assay: Induction of apoptosis in human MV4-11 cells assessed as necrotic cells at 10 nM after 48 hrs by annexin V/propidium iodide staining based FACS analysis (reference value: 0.05%); assay type: functional

Cc1cc(Nc2ncc3ncc(=O)n(-c4ccc(N)cc4)c3n2)ccc1N1CCN(C)CC1
IC50 (RS4-11): 925 nM | Activity [1]: < 1% | Activity (MV4-11 [2]): 21.77% | inhibition in vivo at 10 mg/kg (MV4-11 [3]): 28% | IC50 (WI-38): 4120 nM | Activity (MV4-11 [4]): 16.38% | Activity (MV4-11 [5]): Dose-dependent effect | Activity (MV4-11 [6]): 3.49% | Activity (MV4-11 [7]): 0% | Activity (MV4-11 [8]): 0% | Activity (MV4-11 [9]): 85.92% | Activity (MV4-11 [10]): Dose-dependent effect | Activity (MV4-11 [11]): Active | Kd [12]: 0.79 nM | IC50 (MV4-11 [13]): 51 nM | Activity [14]: < 1% | AUC(0-inf) [15]: 119 ng·h/mL | IC50 (DMS-79): > 10000 nM | IC50 (MCF7): > 10000 nM | IC50 (A549): > 10000 nM | inhibition in vivo at 50 mg/kg (MV4-11 [16]): 136% | Activity (MV4-11 [17]): Dose-dependent effect | IC50 (NCI-H209): > 10000 nM | Activity (MV4-11 [18]): 9.71% | IC50 (SW-620): 2530 nM | Activity (MV4-11 [19]): 0.02% | Activity (MV4-11 [20]): 31.3% | viability at 0.1 µM (MV4-11 [21]): 60.3% | Activity (MV4-11 [22]): 11.4% | Activity (MV4-11 [23]): 38.4% | inhibition in vivo at 25 mg/kg (MV4-11 [24]): 87% | viability at 1 µM (MV4-11 [25]): 27.3% | Activity (MV4-11 [26]): 2.06% | Kd [27]: 2 nM | Activity (MV4-11 [28]): 0.01%
